According to patent US20220016127A1, “COMPOSITIONS AND METHODS FOR INDUCING APPENDAGE AND LIMB REGENERATION” (priority 2020, published 2022):
Several values for one entry are separate records, joined by “and”; a condition that tells them apart may be missing. Identical values can stand only once.

Assays:
[1] = tested on: Aurelia ephyra; test: Arm regeneration induction in amputated Aurelia ephyrae; assay type: in vivo, Aurelia aurita; details: for effect on arm regeneration / regeneration frequency (in words): amputated ephyrae, factor added to artificial seawater upon amputation; for Percent regeneration, Average: average over experiments; for Effect size, Length of arm regenerates: Response Ratio treated vs control (Table 7); for Average effect size: Risk Ratio of regeneration frequency, across experiments (Table 4); for Average effect size / Odds Ratio: treated vs control; for Effect size, % ephyrae regenerating / Effect size, % ephyrae regenerating >1 arm / Effect size, % ephyrae regenerating rhopalia: Risk Ratio treated vs control (Table 7); for Odds Ratio: odds of regeneration, across experiments (Table 6)
Procedure: Amputation. Strobilated ephyrae were fed daily with rotifers (Brachionus plicatilis) until amputation time. 2-3 days old ephyrae were anesthetized in 400 μM menthol and amputated using a razor blade mounted on an x-acto knife handle. After amputation, ephyrae were let to recover in bubbler cones (FIG. 7). Regeneration was assessed at various times until 1-2 weeks after amputation, before onset of maturation to medusa.
Inducing regeneration. Experimental setup. 0.5-1 L sand settling cones were repurposed as jellyfish aquaria (Nalgene Imhoff; FIG. 7). Each cone was equipped with an airline from a Tetra Whisper air pump 100 to create a gentle vertical current (˜1 bubble/sec, see FIG. 30). The conical geometry eliminates stagnant spots, where the ephyrae could get stuck. In this “bubbler cone” setup, the ephyrae were continually in water current either in the upward air bubble-generated current or the downward self-generated current. 500 mL artificial seawater and 30 ephyrae were placed in each cone to avoid crowding and fouling. Artificial seawater was changed every week. Nutrients. In some embodiments, the food amount given here only serves as an initial estimate; percentage of regeneration can easily vary with lab culture condition (e.g., polyp and rotifer size, age, health), as well as subject to variation across polyps and strobilation batches (see Table 2A-Table 2C for a sense of the variation). Amputated ephyrae were fed daily with rotifers. The number of rotifers administered daily was estimated using a 6-well plate fitted with STEMgrid™ (the same principle as using a hemocytometer). In some embodiments, low food is ˜100-200 rotifers/ephyra, whereas high food is ˜400 rotifers/ephyra. Insulin. Human recombinant insulin was administered to the amputated ephyrae at 500 nM immediately after amputation (by mixing in the artificial seawater). If the experiment proceeds longer than a week, fresh insulin was added at the one-week time point. Hypoxia. Nitrogen or argon flow, instead of ambient air flow, was introduced via the airline into the bubbler cone immediately after amputation, and maintained throughout the duration of the experiment. The nitrogen flow was adjusted to achieve 50% reduction in the dissolved oxygen level.
Inhibiting or activating mTOR. 1 nM Sapanisertib (Selleck Chemicals S2811), 1 μM A769662 (Santa Cruz sc-203790), or 100 μM L-leucine (Sigma L1002, the cell-permeable methyl ester hydrochloride form) was administered into the artificial seawater right after amputation, and refreshed weekly. Statistical analysis. Percent regeneration was first normalized to the control (for sapanisertib and A769662, the HF+DMSO control; for leucine data the LF control), and then the student's t-test (two tailed, equal variances) in Excel was used to test the null hypothesis that the fold change in % regeneration is zero. Drosophila melanogaster
Amputation. Strobilated ephyrae were fed daily with rotifers (Brachionus plicatilis, Reed Mariculture) until amputation time. 2-3 days old ephyrae were anesthetized in 400 μM menthol and amputated using a razor blade mounted on an x-acto knife handle. After amputation, ephyrae were let to recover in bubbler cones (FIG. 21). Regeneration was assessed at various times for 1-2 weeks after amputation, before onset of maturation to medusa. Experiment in the original habitat. The polyp population in the study arose from parental polyps collected off the coast of Long Beach, Calif. (33° 46′04.2″N 118° 07′44.2″W, GPS: 33.7678376,−118.1289559). Ephyrae were amputated in location and immediately after submersed in the ocean. For submerging the amputated ephyrae in the ocean, a two-layered aquarium was custom-built. Ephyrae were placed in plastic canisters with a 7 cm diameter hole cut in the lid and covered with a 250 μm plastic screen. The canisters were then placed in a thick plastic tank fitted with a 500 μm plastic screen on top. […]

[2] = tested on: Aurelia ephyra; test: Body size (growth) of amputated Aurelia ephyrae; assay type: in vivo, Aurelia aurita; details: Response Ratio across experiments (Table 8)
Procedure: Two-to-three-day-old ephyrae were anesthetized in 400 μM menthol and amputated using a razor blade mounted on an x-acto knife handle. Amputated ephyrae were let to recover in 1 L sand settling cones (Nalgene Imhoff, FIG. 21). In each experiment, ˜90 animals were amputated for each condition (e.g., 90 animals for control and 90 animals for treated). Because of the varying baseline across strobilation batches, each experiment was repeated across 2-5 strobilation batches (biological replicates). These sample sizes were chosen to obtain a 95% confidence level on the treatment effect (statistical analysis described below). Hundreds of experimental animals were first amputated, mixed together in a beaker, and then randomly allocated to the control or treatment groups. Regeneration was assessed at various times for 1-2 weeks after amputation, before onset of maturation to medusa. All data were included in the analysis.
For measurements of arm length and body size, the datasets are in the form of continuous variables. For such data, the commonly used effect size is the Response Ratio (R, EQUATION 3),
R evaluates the proportionate change that results from a treatment, and is the meaningful effect size to use when the outcome of a treatment is measured on a physical scale, e.g., length or area (as opposed to arbitrary scale, e.g., happiness level). […]

[3] = tested on: Drosophila limb; test: Tibia (hindlimb) regeneration in amputated adult Drosophila; assay type: in vivo, Drosophila melanogaster; details: adult flies, fed in food
Procedure: Amputation. Adult flies 2-7 days after eclosion were anesthetized with CO2. Amputations were performed under a dissection microscope using a spring scissors (Fine Science Tools, 91500-09) and superfine dissecting forceps (VWR, 82027-402). Recovering Drosophila were fed with standard fly food (control) or standard fly food supplemented with 2 mM L-leucine (Sigma L8000), 2 mM L-Glutamine (Sigma G3126), and 0.1 mg/mL insulin (MP Biomedicals 0219390080) or other molecular factors. To introduce molecular factors into fly food, standard fly food was microwaved in short pulses, such that the topmost layer of the food was liquified. Molecular factors in aqueous medium were then pipetted into this liquified layer. Food was allowed to re-set at 4° C. for at least 20 minutes. New food was prepared fresh every 2 days throughout the course of the 2-week experiment. Regeneration was assessed at 3, 6, 9 and 14 days post amputation.
Drosophila were amputated on the hindlimb, across the fourth segment of the leg, the tibia (FIG. 16A-FIG. 16C). The amputation removed the distal half to third of the tibia and all tarsal segments. […] Regeneration was assessed between 7-21 dpa as the presence of a regrown tibia with a reformed distal joint (FIG. 16E). […]

[4] = tested on: Aurelia ephyra; test: Arm regeneration induction in amputated Aurelia ephyrae; assay type: in vivo, Aurelia aurita; details: low food (LF) background; single experiments; arm regeneration 1-2 weeks after amputation; insulin 500 nM, L-leucine 100 μM / 100 mM, nitrogen flow ~50% reduction in oxygen
[5] = high food (HF) background, single experiments, insulin 500 nM, 1 nM sapanisertib, 1 μM A769662 (controls HF + DMSO), nitrogen or argon flow ~50% reduction in oxygen

Compound: N#Cc1c(O)c2c(-c3ccc(-c4ccccc4O)cc3)csc2[nH]c1=O [A769662, reference compound]
- effect on arm regeneration / regeneration frequency (in words) [1]: inhibited arm regeneration
- Percent regeneration, Average ([1]; high food (HF) background): 8.3%
- Percent regeneration [1, 5]: 9.8% and 7.0%

Compound: CC(C)C[C@H](N)C(=O)O [Leucine, L-leucine]
- Effect size, Length of arm regenerates [1]: 1.7
- Average effect size [1]: 4.1
- Effect size, % ephyrae regenerating [1]: 4.1
- Effect size, % ephyrae regenerating >1 arm [1]: 6.0
- Effect size, % ephyrae regenerating rhopalia [1]: 6.1
- effect on arm regeneration / regeneration frequency (in words) [1]: induced arm regeneration
- Percent regeneration, Average ([1]; low food (LF) background): 23.0%
- Odds Ratio [1]: 5.8
- Ave. body diameter treatment/control [2]: 1.1
- effect on tibia regrowth (in words) [3]: can by itself effect tibia regrowth

Compound: CC(C)n1nc(-c2ccc3oc(N)nc3c2)c2c(N)ncnc21 [Sap, Sapanisertib, reference compound]
- Percent regeneration, Average ([1]; high food (HF) background): 11.5%

Compound: [Ar] [argon]
- effect on arm regeneration / regeneration frequency (in words) [1]: dramatically induced regeneration
- Percent regeneration [1, 5]: 72.5%

Compound: N#N [nitrogen]
- Percent regeneration ([1]; LF* background, single experiment, nitrogen flow): 28.4%
- Percent regeneration, Average ([1]; high food (HF) background): 69.3%
- Percent regeneration [1, 5]: 82.1% and 56.9%
- Percent regeneration, Average ([1]; low food (LF) background): 30.6%
- Percent regeneration [4]: 32.5%

Compound: Insulin: human recombinant insulin (Sigma I0908), 500 nM in artificial seawater
- Effect size, Length of arm regenerates [1]: 1.2
- Average effect size [1]: 2.4
- Effect size, % ephyrae regenerating [1]: 2.4
- Effect size, % ephyrae regenerating >1 arm [1]: 1.9
- Effect size, % ephyrae regenerating rhopalia [1]: 1.3
- Percent regeneration [1, 5]: 36.4%
- Odds Ratio [1]: 5.0
- Ave. body diameter treatment/control [2]: 1.4
- Percent regeneration [4]: 25%

Compound: Tgfb: protein tested in the screen (hTGF-β1, Peprotech 100-21)
- effect on arm regeneration / regeneration frequency (in words) [1]: no effect
